The record followed here is patent US20260184712A1, “Heterocyclic Compounds as ENT Inhibitors and Compounds for Use in the Treatment of Cancers” (iTeos Belgium SA, priority 2022, published 2026).

The term IC50 denotes the concentration at which inhibition is half-maximal.

The target of one experiment is T1, human ENT1 (Homo sapiens, UniProt Q99808).
T1 construct: JAR cells expressing ENT1 were purchased from ATCC; host or cells: JAR cells
T1 sequence (Q99808 1-456): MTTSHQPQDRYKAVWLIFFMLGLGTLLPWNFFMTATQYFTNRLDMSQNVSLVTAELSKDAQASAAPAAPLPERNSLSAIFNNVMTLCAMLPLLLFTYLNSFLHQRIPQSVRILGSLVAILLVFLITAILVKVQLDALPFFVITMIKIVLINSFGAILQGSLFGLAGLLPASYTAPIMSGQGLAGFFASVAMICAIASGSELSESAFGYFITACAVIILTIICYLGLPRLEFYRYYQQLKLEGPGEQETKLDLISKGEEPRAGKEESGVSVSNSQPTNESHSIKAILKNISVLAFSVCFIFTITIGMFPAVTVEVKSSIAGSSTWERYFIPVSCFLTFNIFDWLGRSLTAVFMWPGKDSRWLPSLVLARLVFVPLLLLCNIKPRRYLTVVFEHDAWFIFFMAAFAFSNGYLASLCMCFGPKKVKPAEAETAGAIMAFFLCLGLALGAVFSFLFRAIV
As to the kind of experiment: Uridine transport inhibition assay, ENT1-mediated uptake in MDCKII cells. It counts as cell-based. Conditions: MDCKIIENT1-LV cells, probe uridine 1 μM, pre-incubation 30 min, incubation 1 min. The protocol: The goal of this study was to determine the potency and selectivity of ENT1 inhibitors by measuring ENT1 and ENT2-mediated transport using an in vitro cellular uptake assay.
Human ENT1 and ENT2 transporters were stably expressed in Madin-Darby Canine Kidney II (MDCKII) cells via transduction. Cell lines overexpressing the relevant ENT1 or ENT2 molecules were preincubated with a dose range of the relevant compound for 30 minutes before introduction of the specific substrate at the concentration indicated in the Table assay parameters below. The transporter assay was conducted for the time specified in the Table assay parameters before the specific uptake of the substrate into the cells was quantified. Specific uptake was determined by comparing the uptake from the cells treated with the relevant compounds and the uptake by cells not overexpressing the transporter in question.
Specific uptake for each concentration of the test sample was normalized to the DMSO control value to generate a relative accumulation value (or relative transporter activity). Data were plotted against the log molar concentration of the test reagent used. IC50 values were generated with Prism version 9.4.1 and the following function: log(inhibitor) vs. response—Variable slope (four parameters).
For the compound `C[C@H]1O[C@@H](n2c(NC3CCCC3)nc3c(OCc4ccc([N+](=O)[O-])cc4)ncnc32)[C@H](O)[C@@H]1O` [Compound 6], the IC50 was 0.1 to 2 nM.

`C[C@H]1O[C@@H](n2cnc3c(N4CCc5ccc([N+](=O)[O-])cc5C4)ncnc32)[C@H](O)[C@@H]1O` [Compound 151]: the IC50 lay within 0.1 to 2 nM.

On to `C[C@H]1O[C@@H](n2cnc3c(SCc4ccc([N+](=O)[O-])cc4)ncnc32)[C@H](O)[C@@H]1O` [Compound 147], for which the IC50 is below 0.1 nM.

Take `OCCOC[C@H]1O[C@@H](n2cnc3c(OCc4ccc(OC(F)(F)F)cc4)ncnc32)[C@H](O)[C@@H]1O` [Compound 175]: the IC50 is 0.1 to 2 nM.

In turn, `C[C@H]1O[C@@H](n2c(NC3CCOCC3)nc3c(OCc4ccc(C#N)cc4)ncnc32)[C@H](O)[C@@H]1O` [Compound 73] gave an IC50 of 0.1 to 2 nM.

Compound `C[C@H]1O[C@@H](n2c(N[C@H]3CCC(F)(F)C3)nc3c(OCc4ccc(C#N)cc4)ncnc32)[C@H](O)[C@@H]1O` [Compound 82] returned an IC50 of 0.1 to 2 nM.

In the case of `C[C@H]1O[C@@H](n2cnc3c(OCc4ccc(OC(F)F)cc4)ncnc32)[C@H](O)[C@@H]1O` [Compound 173], the IC50 fell in the range of 0.1 to 2 nM.

Take `C[C@H]1O[C@@H](n2c(NC3CCOCC3)nc3c(OCc4ccc(OC(F)F)nc4)ncnc32)[C@H](O)[C@@H]1O` [Compound 75]: the IC50 lay within 0.1 to 2 nM.

In turn, `C[C@H]1O[C@@H](n2cnc3c(OCc4ccc([N+](=O)[O-])cc4)ncnc32)[C@H](O)[C@@H]1O` [Compound 166] returned an IC50 of 0.1 to 2 nM.

Compound `C[C@H]1O[C@@H](n2c(NC3CCC(O)CC3)nc3c(OCc4ccc([N+](=O)[O-])cc4)ncnc32)[C@H](O)[C@@H]1O` (some centres unmarked) [Compound 28] returned an IC50 of 0.1 to 2 nM.

The test system of another experiment is stimulated primary human T cells. Nature of the experiment: T cell proliferation assay, Condition A (X-VIVO15). It counts as cell-based. Conditions: Homo sapiens, T-cell, 96 h; Condition A: X-VIVO15 medium; anti-CD3/anti-CD28 beads, ATP, 4 days; CFSE-lo T cells. A digest of the protocol: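 CFSE-labelled human CD3+ T cells (2×10^4/well) in serum-free X-VIVO15 were activated with anti-CD3/CD28 beads (1 bead:2 cells), pre-incubated 30 min with inhibitor, then cultured with 100 uM ATP for 4 days at 37 °C. Flow cytometry measured %CFSE^lo cells, and IC50/IC90 came from log-concentration curve fits.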
As to `C[C@H]1O[C@@H](n2c(NC3CCCC3)nc3c(OCc4ccc([N+](=O)[O-])cc4)ncnc32)[C@H](O)[C@@H]1O` [Compound 6], the IC50 is below 1 nM.

`C[C@H]1O[C@@H](n2cnc3c(N4CCc5ccc([N+](=O)[O-])cc5C4)ncnc32)[C@H](O)[C@@H]1O` [Compound 151] returned an IC50 below 1 nM.

`C[C@H]1O[C@@H](n2cnc3c(SCc4ccc([N+](=O)[O-])cc4)ncnc32)[C@H](O)[C@@H]1O` [Compound 147] returned an IC50 of 1 to 20 nM.

Take `OCCOC[C@H]1O[C@@H](n2cnc3c(OCc4ccc(OC(F)(F)F)cc4)ncnc32)[C@H](O)[C@@H]1O` [Compound 175]: the IC50 fell in the range of 1 to 20 nM.

Turning to `C[C@H]1O[C@@H](n2c(NC3CCOCC3)nc3c(OCc4ccc(C#N)cc4)ncnc32)[C@H](O)[C@@H]1O` [Compound 73], the IC50 was below 1 nM.

On to `C[C@H]1O[C@@H](n2c(N[C@H]3CCC(F)(F)C3)nc3c(OCc4ccc(C#N)cc4)ncnc32)[C@H](O)[C@@H]1O` [Compound 82], for which the IC50 was below 1 nM.

Take `C[C@H]1O[C@@H](n2cnc3c(OCc4ccc(OC(F)F)cc4)ncnc32)[C@H](O)[C@@H]1O` [Compound 173]: the IC50 lay in the range of 1 to 20 nM.

`C[C@H]1O[C@@H](n2c(NC3CCOCC3)nc3c(OCc4ccc(OC(F)F)nc4)ncnc32)[C@H](O)[C@@H]1O` [Compound 75] gave an IC50 below 1 nM.

As for `C[C@H]1O[C@@H](n2cnc3c(OCc4ccc([N+](=O)[O-])cc4)ncnc32)[C@H](O)[C@@H]1O` [Compound 166], the IC50 was in the range of 1 to 20 nM.

In the case of `C[C@H]1O[C@@H](n2c(NC3CCC(O)CC3)nc3c(OCc4ccc([N+](=O)[O-])cc4)ncnc32)[C@H](O)[C@@H]1O` (some centres unmarked) [Compound 28], the IC50 was below 1 nM.
